One experiment relates to PC9/ER cells. The experiment in a line: Cell viability assay (CellTiter-Glo 2.0), erlotinib-resistant PC9/ER cells. In kind it is cell-based. The conditions noted are these: Homo sapiens, PC-9/ER, 72 h drug treatment, read-out: Relative cell viability, IC50 PC9ER. The source says: (§1) To explore c-MET and AXL mechanisms of EGFR TKI resistance, resistant cells of the EGFR TKI hypersensitive EGFR exon 19 mutant NSCLC cell line, HCC827 and PC9 were generated by exposing these cells to increasing concentrations of EGFR TKI for over 3 months.
(§2) Gefitinib-resistant cells were referred to as HCC827/GR. […] Osimertinib-resistant cells were referred to as HCC827/OR.

In another experiment the test system is HCC827/GR cells. Description: Cell viability assay (CellTiter-Glo 2.0), gefitinib-resistant HCC827/GR cells. The class given is cell-based, human. The conditions noted are these: Homo sapiens, read-out: Relative cell viability, IC50 HCC827GR.
From the text: as §1
The human cell line HCC827 was purchased from the American Type Culture Collection (Manassas, VA), and the PC9 cell line was obtained from RIKEN Cell Bank (Ibaraki, Japan). […] Gefitinib-resistant cells were referred to as HCC827/GR. […] Osimertinib-resistant cells were referred to as HCC827/OR.
(§3) Cell viability assays were carried out by plating 1,000 cells per well of HCC827 or PC9 resistant cells, respectively, into white transparent-bottom 384-well plates. The cells were treated with each TKI across a 10-dose range from 1 nM to 10,000 nM. After 72 h of drug treatment, cell viability was measured using the CellTiter-Glo 2.0 assay (Promega, Madison, WI).
as §3

The next experiment has as its system HCC827/ER cells. The experiment in a line: Cell viability assay (CellTiter-Glo 2.0), erlotinib-resistant HCC827/ER cells. In kind it is cell-based, human. The settings on record: Homo sapiens, HCC827ER, read-out: Relative cell viability.
From the text: as §1, §2

A further experiment relates to HCC827/OR cells. Description: Cell viability assay (CellTiter-Glo 2.0), osimertinib-resistant HCC827/OR cells. In kind it is cell-based, human. The settings on record: Homo sapiens, HCC827, 72 h drug treatment, read-out: Relative cell viability, IC50 HCC827OR.
From the text: as §1, §2

Setting [1] is: Table 2, EGFR TKI resistant cells, combination with EGFR TKI.
Where [2] appears, read: HCC827, Table 2, 72 h drug treatment, EGFR TKI resistant cells, combination with EGFR TKI.
Setting [3] is: Table 2, 72 h drug treatment, EGFR TKI resistant cells, combination with EGFR TKI.
Where [4] appears, read: Table 4, combinations of EGFR TKIs and inhibitor of Formula (I).
Setting [5] is: HCC827, Table 4, 72 h drug treatment, combinations of EGFR TKIs and inhibitor of Formula (I).
[6] abbreviates: Table 4, 72 h drug treatment, combinations of EGFR TKIs and inhibitor of Formula (I).

Among the data in US12421207B2 (CMG Pharmaceutical Co., Ltd., priority 2022, dated 2025) are IC50 values, retold here.

Read-outs that look alike come from different tables or passages of the source.

`CC(C)n1cc(C(=O)Nc2ccc(Oc3ccnc(N)c3C#CCN3CCNCC3)c(F)c2)c(=O)n(-c2ccc(F)cc2)c1=O` [Example 17]: the IC50 with PC9/ER cells (setting [1]), in the experiment on HCC827/GR cells (setting [2]), in the experiment with HCC827/ER cells (setting [3]) and in the experiment on HCC827/OR cells (setting [1]) was less than 0.1 µM in each case.
`Nc1nccc(Oc2ccc(NC(=O)c3cn(C4CCOCC4)c(=O)n(-c4ccc(F)cc4)c3=O)cc2F)c1C#CCN1CCOCC1` [Example 56, N-(4-(2-amino-3-(3-morpholinoprop-1-ynyl)pyridin-4-yloxy)-3-fluorophenyl)-3-(4-fluorophenyl)-2,4-dioxo-1-(tetrahydro-2H-pyran-4-yl)-1,2,3,4-tetrahydropyrimidine-5-carboxamide]: the IC50 is less than 1 µM in the experiment with PC9/ER cells (setting [4]), less than 0.1 µM with HCC827/GR cells (setting [5]), less than 0.01 µM with HCC827/ER cells (setting [6]) and less than 1 µM with HCC827/OR cells (setting [4]).
Consider `CC(C)n1cc(C(=O)Nc2ccc(Oc3ccnc(N)c3-c3ccccc3)c(F)c2)c(=O)n(-c2ccc(F)cc2)c1=O` [Example 22, N-(4-(2-amino-3-phenylpyridin-4-yloxy)-3-fluorophenyl)-3-(4-fluorophenyl)-1-isopropyl-2,4-dioxo-1,2,3,4-tetrahydropyrimidine-5-carboxamide], for which the IC50 in the experiment with PC9/ER cells (setting [1]) was less than 0.1 µM; with HCC827/GR cells (setting [2]), less than 0.01 µM; with HCC827/ER cells (setting [3]) it was less than 0.1 µM; in the experiment with HCC827/OR cells (setting [1]), less than 0.1 µM.
For the compound `C=CCn1cc(C(=O)Nc2ccc(Oc3ccnc(N)c3C#CC(C)(C)N3CCN(C)CC3)c(F)c2)c(=O)n(CC=C)c1=O` [Example 68, 1,3-diallyl-N-(4-(2-amino-3-(3-methyl-3-(4-methylpiperazin-1-yl)but-1-ynyl)pyridin-4-yloxy)-3-fluorophenyl)-2,4-dioxo-1,2,3,4-tetrahydropyrimidine-5-carboxamide], the IC50 in the experiment on PC9/ER cells (setting [4]) was less than 10 µM; in the experiment on HCC827/GR cells (setting [5]), less than 1 µM; with HCC827/ER cells (setting [6]) it was less than 1 µM; with HCC827/OR cells (setting [4]) it was less than 1 µM.
For the compound `CN(C)C(=O)Cn1cc(C(=O)Nc2ccc(Oc3ccnc(N)c3C#CCN3CCOCC3)c(F)c2)c(=O)n(-c2ccc(F)cc2)c1=O` [Example 34, N-(4-((2-amino-3-(3-morpholinoprop-1-yn-1-yl)pyridin-4-yl)oxy)-3-fluorophenyl)-1-(2-(dimethylamino)-2-oxoethyl)-3-(4-fluorophenyl)-2,4-dioxo-1,2,3,4-tetrahydropyrimidine-5-carboxamide], the IC50 with PC9/ER cells (setting [4]) was less than 10 µM; in the experiment with HCC827/GR cells (setting [5]), less than 1 µM; with HCC827/ER cells (setting [6]) it was less than 1 µM; in the experiment on HCC827/OR cells (setting [4]), less than 10 µM.
As for `CC(C)n1cc(C(=O)Nc2ccc(Oc3ccnc(N)c3-c3cnn(C)c3)c(F)c2)c(=O)n(-c2ccc(F)cc2)c1=O` [Example 7, N-(4-(2-amino-3-(1-methyl-1H-pyrazol-4-yl)pyridin-4-yloxy)-3-fluoropehynl)-1-isopropyl-2,4-dioxo-1,2,3,4-tetrahydropyrimidine-5-carboxamide], the IC50 with PC9/ER cells (setting [1]) is less than 1 µM; in the experiment with HCC827/GR cells (setting [2]), less than 0.01 µM; in the experiment with HCC827/ER cells (setting [3]), less than 0.01 µM; in the experiment with HCC827/OR cells (setting [1]), less than 0.01 µM.
As for `Nc1nccc(Oc2ccc(NC(=O)c3c[nH]c(=O)n(-c4ccc(F)cc4)c3=O)cc2F)c1C#CCC1CCNCC1` [Example 53, N-(4-(2-amino-3-(3-(piperidin-4-yl)prop-1-ynyl)pyridin-4-yloxy)-3-fluorophenyl)-3-(4-fluorophenyl)-2,4-dioxo-1,2,3,4-tetrahydropyrimidine-5-carboxamide], the IC50 was less than 10 µM in the experiment on PC9/ER cells (setting [4]), less than 10 µM in the experiment with HCC827/GR cells (setting [5]), less than 1 µM with HCC827/ER cells (setting [6]) and less than 10 µM in the experiment with HCC827/OR cells (setting [4]).
Take `CN(C)C(=O)Cn1cc(C(=O)Nc2ccc(Oc3ccnc(N)c3C#CCC3CCNCC3)c(F)c2)c(=O)n(-c2ccc(F)cc2)c1=O` [Example 38, N-(4-((2-amino-3-(3-(piperidin-4-yl)prop-1-yn-1-yl)pyridin-4-yl)oxy)-3-fluorophenyl)-1-(2-(dimethylamino)-2-oxoethyl)-3-(4-fluorophenyl)-2,4-dioxo-1,2,3,4-tetrahydropyrimidine-5-carboxamide]: the IC50 with PC9/ER cells (setting [4]), in the experiment on HCC827/GR cells (setting [5]), in the experiment with HCC827/ER cells (setting [6]) and in the experiment with HCC827/OR cells (setting [4]) was less than 10 µM in each case.
As to `CN(C)C(=O)Cn1cc(C(=O)Nc2ccc(Oc3ccnc(N)c3C#CC(C)(C)N3CCOCC3)c(F)c2)c(=O)n(-c2ccc(F)cc2)c1=O` [Example 33, N-(4-((2-amino-3-(3-methyl-3-morpholinobut-1-yn-1-yl)pyridin-4-yl)oxy)-3-fluorophenyl)-1-(2-(dimethylamino)-2-oxoethyl)-3-(4-fluorophenyl)-2,4-dioxo-1,2,3,4-tetrahydropyrimidine-5-carboxamide], the IC50 in the experiment on PC9/ER cells (setting [4]), with HCC827/GR cells (setting [5]), in the experiment on HCC827/ER cells (setting [6]) and in the experiment with HCC827/OR cells (setting [4]) was less than 1 µM each time.
As for `CC(C)n1cc(C(=O)Nc2ccc(Oc3ccnc(N)c3C#CC(C)(C)N3CCNCC3)c(F)c2)c(=O)n(-c2ccc(F)cc2)c1=O` [Example 19, N-(4-(2-amino-3-(3-methyl-3-(piperazin-1-yl)but-1-ynyl)pyridin-4-yloxy)-3-fluorophenyl)-3-(4-fluorophenyl)-1-isopropyl-2,4-dioxo-1,2,3,4-tetrahydropyridmidine-5-carboxamide], the IC50 was less than 0.1 µM in the experiment with PC9/ER cells (setting [1]), less than 0.1 µM in the experiment with HCC827/GR cells (setting [2]), less than 0.01 µM in the experiment with HCC827/ER cells (setting [3]) and less than 0.1 µM with HCC827/OR cells (setting [1]).
With `CCCn1cc(C#Cc2c(Oc3ccc(NC(=O)c4cn(C(C)C)c(=O)n(-c5ccc(F)cc5)c4=O)cc3F)ccnc2N)cn1` [Example 13, N-(4-(2-amino-3-((1-propyl-1H-pyrazol-4-yl)ethynyl)pyridin-4-yloxy)-3-fluorophenyl)-3-(4-fluorophenyl)-1-isopropyl-2,4-dioxo-1,2,3,4-tetrahydropyrimidine-5-carboxamide], the IC50 with PC9/ER cells (setting [1]), in the experiment with HCC827/GR cells (setting [2]), with HCC827/ER cells (setting [3]) and in the experiment with HCC827/OR cells (setting [1]) was less than 0.01 µM each time.
Take `C=CCn1cc(C(=O)Nc2ccc(Oc3ccnc(N)c3C#CCC3CCNCC3)c(F)c2)c(=O)n(CC=C)c1=O` [Example 71, 1,3-dialyl-N-(4-(2-amino-3-(3-(piperidin-4-yl)prop-1-ynyl)pyridin-4-yloxy)-3-fluorophenyl)-2,4-dioxo-1,2,3,4-tetrahydropyrimidine-5-carboxamide]: the IC50 with PC9/ER cells (setting [4]), with HCC827/GR cells (setting [5]), with HCC827/ER cells (setting [6]) and in the experiment with HCC827/OR cells (setting [4]) was less than 1 µM throughout.
Take `Cc1nc(Cn2cc(C(=O)Nc3ccc(Oc4ccnc(N)c4C#CCN4CCOCC4)c(F)c3)c(=O)n(-c3ccc(F)cc3)c2=O)cs1` [Example 40, N-(4-((2-amino-3-(3-morpholinoprop-1-yn-1-yl)pyridin-4-yl)oxy)-3-fluorophenyl)-3-(4-fluorophenyl)-1-((2-methylthiazol-4-yl)methyl)-2,4-dioxo-1,2,3,4-tetrahydropyrimidine-5-carboxamide]: the IC50 with PC9/ER cells (setting [4]) is less than 0.1 µM; in the experiment with HCC827/GR cells (setting [5]), less than 0.1 µM; with HCC827/ER cells (setting [6]), less than 0.1 µM; with HCC827/OR cells (setting [4]) it was less than 1 µM.
As to `CC(C)n1cc(C(=O)Nc2ccc(Oc3ccnc(N)c3C#CC(C)(C)N3CCOCC3)c(F)c2)c(=O)n(-c2ccc(F)cc2)c1=O` [Example 25, N-(4-(2-amino-3-(3-methyl-3-morpholinobut-1-ynyl)pyridin-4-yloxy)-3-fluorophenyl)-3-(4-fluorophenyl)-1-isopropyl-2,4-dioxo-1,2,3,4-tetrahydropyrimidine-5-carboxamide], the IC50 in the experiment with PC9/ER cells (setting [1]), in the experiment with HCC827/GR cells (setting [2]), with HCC827/ER cells (setting [3]) and with HCC827/OR cells (setting [1]) was less than 0.01 µM throughout.
As for `CN1CCC(CC#Cc2c(Oc3ccc(NC(=O)c4c[nH]c(=O)n(-c5ccc(F)cc5)c4=O)cc3F)ccnc2N)CC1` [Example 54, N-(4-(2-amino-3-(3-(1-methylpiperidin-4-yl)prop-1-ynyl)pyridin-4-yloxy)-3-fluorophenyl)-3-(4-fluorophenyl)-2,4-dioxo-1,2,3,4-tetrahydropyrimidine-5-carboxamide], the IC50 with PC9/ER cells (setting [4]), in the experiment with HCC827/GR cells (setting [5]), in the experiment on HCC827/ER cells (setting [6]) and in the experiment with HCC827/OR cells (setting [4]) was less than 1 µM in each case.
`CC(C)n1cc(C(=O)Nc2ccc(Oc3ccnc(N)c3Cl)c(F)c2)c(=O)n(-c2ccc(F)cc2)c1=O` [Example 6, N-(4-(2-amino-3-chloropyridin-4-yloxy)-3-fluorophenyl)-3-(4-fluorophenyl)-1-isopropyl-2,4-dioxo-1,2,3,4-tetrahydropyrimidine-5-carboxamide]: the IC50 in the experiment on HCC827/GR cells (HCC827, 72 h) is less than 0.1 µM.
